Values after ≈ are worked out from the molar mass of the structure shown. Active and inactive are the calls of the source. The rule behind the calls is not given here.
Key:
[1] = tested on: ATP synthase (Mycobacterium tuberculosis), P9WPU9+P9WPU5+P9WPU7+P9WPV5+P9WPS1+P9WPV1+P9WPV7+P9WPV3 [A63P]; experiment: Inhibition of Mycobacterium tuberculosis isolate BK12 ATP synthase subunit c A63P mutant-mediated ATP synthesis after 24 hrs by luminometry
[2] = tested on: ATP synthase (Mycobacterium tuberculosis), P9WPU9+P9WPU5+P9WPU7+P9WPV5+P9WPS1+P9WPV1+P9WPV7+P9WPV3 [I66M]; experiment: Inhibition of Mycobacterium tuberculosis isolate LV13 ATP synthase subunit c I66M mutant-mediated ATP synthesis after 24 hrs by luminometry
[3] = tested on: Mycobacterium tuberculosis; experiment: Antimicrobial activity against wild-type Mycobacterium tuberculosis isolate BK12 expressing ATP synthase AtpE A63P mutant protein assessed as growth inhibition in early log-phase by 7H10 agar dilution method; format: functional, organism-based
[4] = tested on: Mycobacterium tuberculosis; experiment: Antimicrobial activity against wild-type Mycobacterium tuberculosis isolate LV13 expressing ATP synthase AtpE I66M mutant protein assessed as growth inhibition in early log-phase by 7H10 agar dilution method; format: functional, organism-based
[5] = tested on: Mycobacterium tuberculosis; experiment: Antimicrobial activity against Mycobacterium tuberculosis H37Rv isolate LV13 expressing ATP synthase atpE I66M mutant protein by 7H9 broth dilution method; format: functional
[6] = tested on: Mycobacterium tuberculosis; experiment: Antimicrobial activity against Mycobacterium tuberculosis H37Rv isolate BK12 expressing ATP synthase atpE A63P mutant protein by 7H9 broth dilution method; format: functional
[7] = tested on: Mycobacterium tuberculosis; experiment: Antimicrobial activity against Mycobacterium tuberculosis H37Rv isolate LV13 expressing ATP synthase atpE I66M mutant protein by 7H10 broth dilution method; format: functional
[8] = tested on: Mycobacterium tuberculosis; experiment: Antimicrobial activity against Mycobacterium tuberculosis H37Rv isolate BK12 expressing ATP synthase atpE A63P mutant protein by 7H10 broth dilution method; format: functional
[9] = tested on: Mycobacterium tuberculosis; experiment: Ratio of MIC for Mycobacterium tuberculosis H37Rv isolate LV13 expressing ATP synthase atpE I66M mutant protein to MIC for Mycobacterium tuberculosis H37Rv; format: functional
[10] = tested on: Mycobacterium tuberculosis; experiment: Ratio of MIC for Mycobacterium tuberculosis H37Rv isolate BK12 expressing ATP synthase atpE A63P mutant protein to MIC for Mycobacterium tuberculosis H37Rv; format: functional

Compound | inhibition [1] | inhibition [2] | Activity [3] | Activity [4] | MIC [5] [µg/mL] | MIC [6] [µg/mL] | MIC [7] [µg/mL] | MIC [8] [µg/mL] | Ratio [9] | Ratio [10]
COc1nc2ccc(Br)cc2cc1[C@@H](c1ccccc1)[C@@](O)(CCN(C)C)c1cccc2ccccc12 | inactive | inactive | Active | Active |  |  |  |  |  | 
COc1nc2ccc(Br)cc2cc1[C@@H](c1ccccc1)[C@@](O)(CCN(C)C)c1cccc2ccccc12 [BEDAQUILINE] |  |  |  |  | 11 (≈ 19.8 µM) | 11 (≈ 19.8 µM) | 13 (≈ 23.4 µM) | 13 (≈ 23.4 µM) | >200 | >200

From ChEMBL document CHEMBL1221200, “Diarylquinolines target subunit c of mycobacterial ATP synthase” (Nat Chem Biol, 2007)
